Source: paper PMC3674138 (Clinical cancer research : an official journal of the …, 2013)
Like-named read-outs stand apart in the source and are kept apart here.

What was measured:
[1] = cited from earlier work
clinical [2] = settings: human, in vivo, 150 mg, AUC0–24
clinical [3] = settings: human, in vivo, 150 mg, AUC0–168
[4] = Unbound vismodegib plasma concentration; type: in vivo, human; settings: for unbound vismodegib concentrations: after daily dosing 150 mg, mean ± SD
advanced solid tumors = test: Anticancer activity by RECIST 1.1 in advanced solid tumor patients; type: in vivo, human
[5] = Adverse events at least possibly related to vismodegib during daily dosing; type: in vivo, human
[6] = system: basal cell carcinoma (BCC); settings: oral 150 mg daily, cited from earlier work
[7] = high permeability, low solubility; cited from earlier work
[8] = 46 patients evaluable for response, 150 mg daily
[9] = all patients during daily dosing (both groups)

CS(=O)(=O)CCNCc1ccc(-c2ccc3ncnc(Nc4ccc(OCc5cccc(F)c5)c(Cl)c4)c3c2)o1 [lapatinib]
increase in exposure (area-under-the-curve; AUC) with food [1]: 150%

CS(=O)(=O)c1ccc(C(=O)Nc2ccc(Cl)c(-c3ccccn3)c2)c(Cl)c1 [vismodegib]
AUC(0-t) (clinical [2]): 239 µg·h/mL | AUC(0-t) (clinical [3]): 417 µg·h/mL | unbound vismodegib concentrations ([4]; fasting group): 79 ± 53 ng/mL | unbound vismodegib concentrations ([4]; fed group): 103 ± 49 ng/mL | Steady-state unbound drug concentrations as share of total concentrations ([4]; daily dosing, fasting and fed groups): less than 1% | objective responses (RECIST 1.1) (advanced solid tumors; [8]): no objective responses | patients with stable disease (advanced solid tumors; [8]): Nine | range of duration of stable disease (advanced solid tumors; patients with stable disease, longest in a patient with BCC): 8 to 152 weeks | Alopecia, All grades (%) ([5]; Fasting (n=31), 150 mg daily): 4 (13) n (%) | Anorexia, All grades (%) ([5]; Fasting (n=31), 150 mg daily): 9 (29) n (%) | Diarrhea, All grades (%) ([5]; Fasting (n=31), 150 mg daily): 4 (13) n (%) | Dizziness, All grades (%) ([5]; Fasting (n=31), 150 mg daily): 3 (10) n (%) | Dysgeusia, All grades (%) ([5]; Fasting (n=31), 150 mg daily): 8 (26) n (%) | Dyspnea, All grades (%) ([5]; Fasting (n=31), 150 mg daily): 3 (10) n (%) | Fatigue, All grades (%) ([5]; Fasting (n=31), 150 mg daily): 11 (35) n (%) | Fatigue, Grade 3 (%) ([5]; Fasting (n=31), 150 mg daily): 2 (6) n (%) | Hyperglycemia, All grades (%) ([5]; Fasting (n=31), 150 mg daily): 2 (6) n (%) | Hyperkalemia, All grades (%) ([5]; Fasting (n=31), 150 mg daily): 1 (3) n (%) | Hypophosphatemia, All grades (%) ([5]; Fasting (n=31), 150 mg daily): 3 (10) n (%) | Hypophosphatemia, Grade 3 (%) ([5]; Fasting (n=31), 150 mg daily): 1 (3) n (%) | Myalgia, All grades (%) ([5]; Fasting (n=31), 150 mg daily): 6 (19) n (%) | Nausea, All grades (%) ([5]; Fasting (n=31), 150 mg daily): 10 (32) n (%) | Vomiting, All grades (%) ([5]; Fasting (n=31), 150 mg daily): 4 (13) n (%) | Weight loss, All grades (%) ([5]; Fasting (n=31), 150 mg daily): 5 (16) n (%) | Alopecia, All grades (%) ([5]; Fed (n=30), 150 mg daily): 1 (3) n (%) | Anorexia, All grades (%) ([5]; Fed (n=30), 150 mg daily): 13 (43) n (%) | Diarrhea, All grades (%) ([5]; Fed (n=30), 150 mg daily): 3 (10) n (%) | Dizziness, All grades (%) ([5]; Fed (n=30), 150 mg daily): 2 (7) n (%) | Dysgeusia, All grades (%) ([5]; Fed (n=30), 150 mg daily): 13 (43) n (%) | Fatigue, All grades (%) ([5]; Fed (n=30), 150 mg daily): 11 (37) n (%) | Fatigue, Grade 3 (%) ([5]; Fed (n=30), 150 mg daily): 1 (3) n (%) | Hyperglycemia, All grades (%) ([5]; Fed (n=30), 150 mg daily): 1 (3) n (%) | Hyperkalemia, All grades (%) ([5]; Fed (n=30), 150 mg daily): 1 (3) n (%) | Hyperkalemia, Grade 3 (%) ([5]; Fed (n=30), 150 mg daily): 1 (3) n (%) | Myalgia, All grades (%) ([5]; Fed (n=30), 150 mg daily): 7 (23) n (%) | Nausea, All grades (%) ([5]; Fed (n=30), 150 mg daily): 9 (30) n (%) | Neutropenia, All grades (%) ([5]; Fed (n=30), 150 mg daily): 1 (3) n (%) | Neutropenia, Grade 3 (%) ([5]; Fed (n=30), 150 mg daily): 1 (3) n (%) | Vomiting, All grades (%) ([5]; Fed (n=30), 150 mg daily): 3 (10) n (%) | Weight loss, All grades (%) ([5]; Fed (n=30), 150 mg daily): 2 (7) n (%) | anorexia, any grade, frequency [5, 9]: 36% | dysgeusia, any grade, frequency [5, 9]: 34% | fatigue, Grade 3, frequency [5, 9]: 5% | fatigue, any grade, frequency [5, 9]: 36% | hyperkalemia, Grade 3, frequency [5, 9]: 2% | hypophosphatemia, Grade 3, frequency [5, 9]: 2% | nausea, any grade, frequency [5, 9]: 31% | neutropenia, Grade 3, frequency [5, 9]: 2% | response rate ([6]; locally advanced BCC): 43% | response rate ([6]; metastatic BCC): 30% | Biopharmaceutics Classification System class [7]: 2
